Experimental data: BigSolDB 2.1

c1ccc2c(c1)sc1ccccc12
solubility (mole fraction)
Details	in acetonitrile	in ethanol	in formic acid	in isopropanol	in methanol	in n-butanol
278.15 K	0.00454	0.00347	0.000475	0.00245	0.00126	0.00485
283.15 K	0.00611	0.00433	0.000578	0.00347	0.00163	0.00621
288.15 K	0.00845	0.00529	0.000668	0.00436	0.00192	0.00788
293.15 K	0.0128	0.00619	0.000756	0.00577	0.00242	0.00999
298.15 K	0.0157	0.0075	0.000881	0.00703	0.0029	0.0132
303.15 K	0.0189	0.00919	0.000995	0.00874	0.00331	0.016
308.15 K	0.0241	0.0105	0.00112	0.0111	0.00406	0.0192
313.15 K	0.0321	0.0127	0.00126	0.0136	0.00478	0.0242
318.15 K	0.0402	0.0148	0.0014	0.0162	0.00573	0.0303
323.15 K	0.0506	0.0174	0.00157	0.0202	0.00668	0.0381
328.15 K	0.0639	0.0206	0.00177	0.0249	0.00795	0.0458
